Key:
[1] = system: SRD5A1 protein expression; assay: Western blot of SRD5A1 protein expression in HaCaT cells; format: cell-based, human
Protocol: HaCaT cells (1 × 10^5 cells/well in 6-well plates) were cultured in DMEM with or without compound 4 (0–2.5 µM) for 12 and 24 h. The cells were lysed with RIPA buffer containing 1% protease inhibitor and 1% phosphatase inhibitor on ice for 45 min. Then, the total protein from each sample was determined by bicinchoninic acid (BCA) protein assay kit (Cat No. 23225, Thermo Fisher Scientific, Rockford, IL, USA). The equal amount (40 µg) of protein sample was mixed with loading buffer and heated at 95 °C for 5 min before loaded to 10% sodium dodecyl sulfate–polyacrylamide gels (SDS-PAGE). The proteins were transferred onto PVDF membrane, which was further blocked with 5% BSA in TBST (25 mmol/L Tris–HCl; pH 7.4, 125 mmol/L NaCl, 0.1% Tween 20) at room temperature for 1 h. The primary antibody specific to SRD5A1 (1TFS-AB-PA575919, Thermo Fisher Scientific, Rockford, IL, USA) in dilution 1:1000 was added onto the membrane and incubated overnight at 4 °C. Then the membrane was washed 3 times × 7 min with TBST following with the immersion in the specific secondary antibody conjugated with horseradish peroxidase (HRP) for 1 h at room temperature. The signal of target protein was determined by using chemiluminescence HRP substrate (Thermo Scientific, Rockford, IL, USA) and the intensity of target protein was analyzed by analyst/PC densitometric software (Bio-Rad, Hercules, CA, USA).

[2] = Cell viability (MTT) run in parallel with the HaCaT-based SRD5A1 inhibitory assay; parameters: species or system human; details: human, HaCaT cells, HaCaT, 24 h
HaCaT cells = assay: as above; parameters: species or system human; details: HaCaT
HaCaTs-produced SRD5A1 = target: T1, HaCaTs-produced SRD5A1 (Homo sapiens, UniProt P18405); assay: Whole-cell-based kinetic study of HaCaT-produced SRD5A1 with HPTLC; parameters: Apparent Vmax: unit not given here; details: 12 h
T1 construct: HaCaTs-produced SRD5A1 smoothly converted testosterone to DHT; endogenous in cells; host or cells: HaCaT human keratinocytes
T1 sequence (P18405 1-259): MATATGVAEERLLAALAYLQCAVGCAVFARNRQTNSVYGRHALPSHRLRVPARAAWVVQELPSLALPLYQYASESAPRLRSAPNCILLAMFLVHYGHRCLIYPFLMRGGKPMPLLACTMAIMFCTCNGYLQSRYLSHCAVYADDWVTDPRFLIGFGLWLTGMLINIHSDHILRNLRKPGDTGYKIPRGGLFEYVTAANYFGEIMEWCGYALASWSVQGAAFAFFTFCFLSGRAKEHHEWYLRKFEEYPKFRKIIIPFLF
Protocol: The in vitro whole HaCaT cell-based assay for the kinetic inhibition against SRD5A1 included culturing the cells for 48 h, treating the cells with testosterone and compound 4 for 12 h and evaluating the % intensity of DHT and cell viability using HPTLC analysis and MTT assay, respectively. The HaCaT cells were seeded and incubated as same as the method shown in 3.8. For the evaluation of dose-dependent activity of testosterone, the different concentration of testosterone (0 − 50 μM) and DMEM with 0.1% DMSO were added. […] DMEM with 0.1% DMSO was used as negative control. Then, the cells were incubated for 12 h. The collection of cell culture medium, extraction process, sample preparation and HPTLC detection were prepared by the method mentioned above (3.8). The obtaining chromatogram was visualized by CAMAG HPTLC Software vision CATS and analyzed by Image J software. The percentage of DHT intensity was calculated based on the intensity of DHT normalized by the standard of DHT at 100 μM. At the same time, the cell viability of the treated cells was assessed by the MTT assay. Each experiment was repeated in triplicate.

SRD5A1 mRNA = SRD5A1 mRNA level by RT-qPCR in HaCaT cells; format: cell-based, human; details: 0.5, 1 and 2.5 µM; 12 h and 24 h
Protocol: HaCaT cells (2 × 10^5 cells/well in 6 well-plates) were treated with compound 4 (0, 0.5, 1 and 2.5 µM) for 12 and 24 h. Then, total RNA was extracted by using Purelink RNA mini purification kit. The isolated RNA was purified by DNase I and further used as a template for synthesis of cDNA using RevertAid First Stand cDNA Synthesis Kit. Quantitative real-time PCR (RT-qPCR) was performed with a C100 Thermal Cycler (Bio-Rad CFX384 real-time pcr system) using Luna Universal qPCR Master Mix (M3003). Specific forward and reverse primers of the interested gene was indicated as following.
The reactions were incubated for 39 cycles of 95 °C for 5 s, 60 °C for 30 s and 65 °C for 5 s. The expression of target mRNA was determined as the relative comparison via the ΔCt method. The threshold (Ct) of target genes were normalized with GAPDH (Ct) values.

[3] = target: T2, steroid 5α-reductase type 1 (SRD5A1) (Homo sapiens, UniProt P18405); assay: HaCaT cell-based SRD5A1 inhibitory assay with direct DHT detection by HPTLC
T2 construct: HaCaTs-produced SRD5A1 smoothly converted testosterone to DHT; endogenous in cells; host or cells: HaCaT human keratinocytes
T2 sequence (P18405 1-259): T1 sequence (P18405 1-259)

O=C(C=Cc1ccc(O)c(O)c1)Nc1cc(C(F)(F)F)cc(C(F)(F)F)c1 [Compound 4, 3-(3,4-dihydroxyphenyl)-N-[3,5-bis (trifluoromethyl)phenyl]-2-propenamide]
Suppression of SRD5A1 protein expression relative to untreated control ([1]; 2.5 µM, 24 h): > 50%
SRD5A1 protein expression relative to control ([1]; 1 and 2.5 µM, 24 h): significant decrease
SRD5A1 protein level relative to control ([1]; 12 h): no significant changes
viability at 24 h, 1 µM ([2]; compound 1.0 µM, read-out: % Cell viability ± SD): 88%
viability at 24 h, 5 µM ([2]; compound 5 µM, read-out: Viability of treated cells): < 80%
Cytotoxicity between control and treatment groups (HaCaT cells; 0.2, 0.5, 1 and 2.5 µM): no significant cytotoxicity
% Cell viability ± SD (HaCaT cells; compound 1.0 µM, 24 h, 1 µM): 87.85 ± 1.13%
Apparent Vmax (HaCaTs-produced SRD5A1; compound 4 0.2 µM): 96.08
Apparent Vmax (HaCaTs-produced SRD5A1; compound 4 0.5 µM): 76.27
Apparent Vmax (HaCaTs-produced SRD5A1; compound 4 1.0 µM): 74.06
Apparent Vmax (HaCaTs-produced SRD5A1; compound 4 2.5 µM): 69.85
Ki (HaCaTs-produced SRD5A1; mixed-model inhibition analysis, non-linear): 2380 nM
% DHT intensity ± S.D. (HaCaTs-produced SRD5A1; testosterone 1 µM, compound 4 0.2 µM): 0.83 ± 0.219%
% DHT intensity ± S.D. (HaCaTs-produced SRD5A1; testosterone 1 µM, compound 4 0.5 µM): 0.70 ± 0.16%
% DHT intensity ± S.D. (HaCaTs-produced SRD5A1; testosterone 1 µM, compound 4 1.0 µM): 0.12 ± 0.01%
% DHT intensity ± S.D. (HaCaTs-produced SRD5A1; testosterone 1 µM, compound 4 2.5 µM): 0.13 ± 0.03%
% DHT intensity ± S.D. (HaCaTs-produced SRD5A1; testosterone 5 µM, compound 4 0.2 µM): 29.00 ± 1.829%
% DHT intensity ± S.D. (HaCaTs-produced SRD5A1; testosterone 5 µM, compound 4 0.5 µM): 44.57 ± 9.66%
% DHT intensity ± S.D. (HaCaTs-produced SRD5A1; testosterone 5 µM, compound 4 1.0 µM): 34.49 ± 3.82%
% DHT intensity ± S.D. (HaCaTs-produced SRD5A1; testosterone 5 µM, compound 4 2.5 µM): 0.31 ± 0.04%
% DHT intensity ± S.D. (HaCaTs-produced SRD5A1; testosterone 10 µM, compound 4 0.2 µM): 48.11 ± 5.339%
% DHT intensity ± S.D. (HaCaTs-produced SRD5A1; testosterone 10 µM, compound 4 0.5 µM): 23.04 ± 2.83%
% DHT intensity ± S.D. (HaCaTs-produced SRD5A1; testosterone 10 µM, compound 4 1.0 µM): 27.21 ± 2.98%
% DHT intensity ± S.D. (HaCaTs-produced SRD5A1; testosterone 10 µM, compound 4 2.5 µM): 30.48 ± 5.08%
% DHT intensity ± S.D. (HaCaTs-produced SRD5A1; testosterone 25 µM, compound 4 0.2 µM): 86.19 ± 4.08%
% DHT intensity ± S.D. (HaCaTs-produced SRD5A1; testosterone 25 µM, compound 4 0.5 µM): 71.91 ± 2.00%
% DHT intensity ± S.D. (HaCaTs-produced SRD5A1; testosterone 25 µM, compound 4 1.0 µM): 68.49 ± 0.95%
% DHT intensity ± S.D. (HaCaTs-produced SRD5A1; testosterone 25 µM, compound 4 2.5 µM): 46.20 ± 0.91%
% DHT intensity ± S.D. (HaCaTs-produced SRD5A1; testosterone 50 µM, compound 4 0.2 µM): 90.49 ±10.32%
% DHT intensity ± S.D. (HaCaTs-produced SRD5A1; testosterone 50 µM, compound 4 0.5 µM): 72.72 ± 12.38%
% DHT intensity ± S.D. (HaCaTs-produced SRD5A1; testosterone 50 µM, compound 4 1.0 µM): 65.61 ± 2.06%
% DHT intensity ± S.D. (HaCaTs-produced SRD5A1; testosterone 50 µM, compound 4 2.5 µM): 55.01 ± 2.40%
Mode of SRD5A1 inhibition (HaCaTs-produced SRD5A1; whole-cell): mixed inhibition
Effect on mRNA expression of SRD5A1 (SRD5A1 mRNA): did not affect
Concentration dependence of inhibition of DHT production ([3]; 0.2–2.5 µM, HaCaT): concentration-dependent inhibition
IC50 ([3]; HaCaT cells, 10 µM testosterone, 24 h, read-out: IC50 of inhibition of DHT production (SRD5A1 activity)): 1440 ± 130 nM
inhibition at 2.5 µM ([3]; HaCaT, 2.5 µM, 12 h, read-out: Inhibition of SRD5A1 enzyme activity): ~50%
inhibition at 1 µM ([3]; HaCaT, compound 1.0 µM, HaCaT, 24 h, read-out: % Inhibition of DHT production ± SD): 46%
Potency of DHT inhibition relative to avicequinone C ([3]; IC50 1.44 vs 4.45 µM): 3 times
% Inhibition of DHT production ± SD ([3]; compound 1.0 µM, HaCaT, 24 h, 1 µM): 45.67 ± 3.57%

Reference: paper PMC9718795, “Caffeic acid N-[3,5-bis(trifluoromethyl)phenyl] amide as a non-steroidal inhibitor for steroid 5α-reductase type 1 using a human keratinocyte cell-based assay and molecular dynamics” (Scientific Reports, 2022)
